Data: PubChem BioAssay (NCI)
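Following 48 hours of exposure in 96-well plates, responses at five concentrations were used to interpolate endpoints linearly. GI50 marks 50% less growth. TGI: total growth inhibition.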

Columns and labels:
Assay in all cases: DTP human tumour cell line panel, 48 h; in the data active means GI50 below about 0.43 µM; inactive means the rest
CAKI-1 renal = tested on: CAKI-1 renal
MCF7 breast = tested on: MCF7 breast
OVCAR-3 ovarian = tested on: OVCAR-3 ovarian
HOP-62 NSCLC = tested on: HOP-62 NSCLC
SK-MEL-2 melanoma = tested on: SK-MEL-2 melanoma
M14 melanoma = tested on: M14 melanoma
DU-145 prostate = tested on: DU-145 prostate
SF-268 CNS = tested on: SF-268 CNS
SK-OV-3 ovarian = tested on: SK-OV-3 ovarian
MOLT-4 leukemia = tested on: MOLT-4 leukemia
MDA-MB-435 = tested on: MDA-MB-435
SF-295 CNS = tested on: SF-295 CNS
ACHN renal = tested on: ACHN renal
OVCAR-5 ovarian = tested on: OVCAR-5 ovarian
OVCAR-8 ovarian = tested on: OVCAR-8 ovarian
EKVX NSCLC = tested on: EKVX NSCLC
SF-539 CNS = tested on: SF-539 CNS
RPMI-8226 leukemia = tested on: RPMI-8226 leukemia
MDA-MB-231 breast = tested on: MDA-MB-231 breast
MALME-3M melanoma = tested on: MALME-3M melanoma
HT29 colon = tested on: HT29 colon
HL-60(TB) leukemia = tested on: HL-60(TB) leukemia
U251 CNS = tested on: U251 CNS
UACC-62 melanoma = tested on: UACC-62 melanoma
SR leukemia = tested on: SR leukemia
NCI-H522 lung = tested on: NCI-H522 lung
NCI-H460 lung = tested on: NCI-H460 lung
A549 NSCLC = tested on: A549 NSCLC
LOX IMVI melanoma = tested on: LOX IMVI melanoma
K-562 leukemia = tested on: K-562 leukemia
786-0 renal = tested on: 786-0 renal
NCI/ADR-RES ovarian = tested on: NCI/ADR-RES ovarian
SW-620 colon = tested on: SW-620 colon
BT-549 breast = tested on: BT-549 breast
T-47D breast = tested on: T-47D breast
OVCAR-4 ovarian = tested on: OVCAR-4 ovarian
SN12C renal = tested on: SN12C renal
NCI-H23 lung = tested on: NCI-H23 lung
RXF 393 renal = tested on: RXF 393 renal
HOP-92 NSCLC = tested on: HOP-92 NSCLC
HCT-15 colon = tested on: HCT-15 colon
SNB-19 CNS = tested on: SNB-19 CNS
KM12 colon = tested on: KM12 colon
PC-3 prostate = tested on: PC-3 prostate
IGROV1 ovarian = tested on: IGROV1 ovarian
CCRF-CEM leukemia = tested on: CCRF-CEM leukemia
HCT-116 colon = tested on: HCT-116 colon
NCI-H226 lung = tested on: NCI-H226 lung

Cc1ccccc1Nc1cc(O)c2c(=O)cc(-c3ccccc3)oc2c1
> 100 µM: TGI (CAKI-1 renal) | TGI (MCF7 breast) | TGI (HOP-62 NSCLC) | TGI (SK-MEL-2 melanoma) | TGI (M14 melanoma) | TGI (DU-145 prostate) | TGI (SF-268 CNS) | TGI (SK-OV-3 ovarian) | TGI (MOLT-4 leukemia) | TGI (SF-295 CNS) | TGI (ACHN renal) | TGI (OVCAR-5 ovarian) | TGI (OVCAR-8 ovarian) | TGI (EKVX NSCLC) | TGI (SF-539 CNS) | TGI (RPMI-8226 leukemia) | TGI (MDA-MB-231 breast) | TGI (MALME-3M melanoma) | TGI (HT29 colon) | TGI (HL-60(TB) leukemia) | TGI (U251 CNS) | TGI (UACC-62 melanoma) | TGI (SR leukemia) | TGI (NCI-H522 lung) | TGI (NCI-H460 lung) | TGI (A549 NSCLC) | TGI (LOX IMVI melanoma) | TGI (K-562 leukemia) | TGI (786-0 renal) | TGI (NCI/ADR-RES ovarian) | TGI (SW-620 colon) | TGI (BT-549 breast) | TGI (T-47D breast) | TGI (OVCAR-4 ovarian) | TGI (SN12C renal) | TGI (NCI-H23 lung) | TGI (HOP-92 NSCLC) | TGI (HCT-15 colon) | TGI (SNB-19 CNS) | TGI (KM12 colon) | TGI (PC-3 prostate) | TGI (IGROV1 ovarian) | TGI (CCRF-CEM leukemia) | TGI (HCT-116 colon) | TGI (NCI-H226 lung)
inactive: GI50 (CAKI-1 renal) 2.77 µM | GI50 (MCF7 breast) 0.821 µM | GI50 (OVCAR-3 ovarian) 1.72 µM | GI50 (HOP-62 NSCLC) 3.23 µM | GI50 (SK-MEL-2 melanoma) 2.44 µM | GI50 (M14 melanoma) 2.39 µM | GI50 (DU-145 prostate) 3.78 µM | GI50 (SF-268 CNS) 4.49 µM | GI50 (SK-OV-3 ovarian) 5.56 µM | GI50 (MOLT-4 leukemia) 2.66 µM | GI50 (SF-295 CNS) 2.36 µM | GI50 (ACHN renal) 4.25 µM | GI50 (OVCAR-5 ovarian) > 100 µM | GI50 (OVCAR-8 ovarian) 3.61 µM | GI50 (EKVX NSCLC) 3.35 µM | GI50 (SF-539 CNS) 3.1 µM | GI50 (RPMI-8226 leukemia) 2.87 µM | GI50 (MDA-MB-231 breast) 3.58 µM | GI50 (MALME-3M melanoma) 2.43 µM | GI50 (HT29 colon) 3.25 µM | GI50 (HL-60(TB) leukemia) 2.16 µM | GI50 (U251 CNS) 3.04 µM | GI50 (UACC-62 melanoma) 2.89 µM | GI50 (NCI-H522 lung) 1.79 µM | GI50 (NCI-H460 lung) 2.89 µM | GI50 (A549 NSCLC) 2.11 µM | GI50 (LOX IMVI melanoma) 2.75 µM | GI50 (K-562 leukemia) 0.469 µM | GI50 (786-0 renal) 4.42 µM | GI50 (NCI/ADR-RES ovarian) 1.28 µM | GI50 (SW-620 colon) 0.734 µM | GI50 (BT-549 breast) 4.03 µM | GI50 (T-47D breast) 2.96 µM | GI50 (OVCAR-4 ovarian) 3.38 µM | GI50 (SN12C renal) 4.05 µM | GI50 (NCI-H23 lung) 4.75 µM | GI50 (RXF 393 renal) 2.45 µM | GI50 (HOP-92 NSCLC) 3.51 µM | GI50 (HCT-15 colon) 0.678 µM | GI50 (SNB-19 CNS) 2.98 µM | GI50 (KM12 colon) 2.38 µM | GI50 (PC-3 prostate) 3.3 µM | GI50 (IGROV1 ovarian) 3.2 µM | GI50 (CCRF-CEM leukemia) 2.25 µM | GI50 (HCT-116 colon) 3.36 µM | GI50 (NCI-H226 lung) 4.11 µM
active: GI50 (MDA-MB-435) 0.315 µM | GI50 (SR leukemia) 0.395 µM
4.91 µM: TGI (OVCAR-3 ovarian)
9.56 µM: TGI (RXF 393 renal)
1.93 µM: TGI (MDA-MB-435)
